Target: T1, EGFR-expressing A431 cells (Homo sapiens, UniProt P00533)
T1 construct: host or cells: A431 cells
Assay: Confocal fluorescence microscopy binding
Type: cell-based
Settings: 10 ug/mL, 2 hr at 37° C.
Description: A431, SKOV3, and NIH3T3 cells were obtained from ATCC (Manassas, Va.). The NIH3T3 cells were transfected with HER2 genes (3T3/HER2+), in order to overexpress HER2 receptors (Di Fiore et al., Science 1987, 237, 178-182). All of the cell lines were grown at 37° C. in the presence of 5% CO2 in DMEM medium supplemented with 1% L-glutamine, and 5% FBS. For the confocal fluorescence microscopy experiments cells were plated in Lab-Tek chambered slides (#178599 Nalge Nunc) at an appropriate dilution and allowed to attach overnight at 37° C. prior to treatment. […] The individual cell lines seeded on chambered slides with 60-80% confluency were incubated for 2 hr at 37° C. in the dark. After incubation the cell culture medium was removed and slides were washed three times with PBS (pH=7.4) and immediately fixed in 4% paraformaldehyde prepared in PBS (pH=7.4) for 5 min at room temperature. Fluorescent mounting medium (S3023, DakoCytomation) was added at the time the slide was covered with a cover glass to stabilize the fluorophores before and during confocal microscopy. […] Fluorescence (Cy5.5 or Cy7) and DIC images were collected simultaneously using a 63x Plan-Apochromat 1.4 NA oil immersion objective and a long pass 650 nm emission filter. […]

T1 sequence (P00533 25-1210): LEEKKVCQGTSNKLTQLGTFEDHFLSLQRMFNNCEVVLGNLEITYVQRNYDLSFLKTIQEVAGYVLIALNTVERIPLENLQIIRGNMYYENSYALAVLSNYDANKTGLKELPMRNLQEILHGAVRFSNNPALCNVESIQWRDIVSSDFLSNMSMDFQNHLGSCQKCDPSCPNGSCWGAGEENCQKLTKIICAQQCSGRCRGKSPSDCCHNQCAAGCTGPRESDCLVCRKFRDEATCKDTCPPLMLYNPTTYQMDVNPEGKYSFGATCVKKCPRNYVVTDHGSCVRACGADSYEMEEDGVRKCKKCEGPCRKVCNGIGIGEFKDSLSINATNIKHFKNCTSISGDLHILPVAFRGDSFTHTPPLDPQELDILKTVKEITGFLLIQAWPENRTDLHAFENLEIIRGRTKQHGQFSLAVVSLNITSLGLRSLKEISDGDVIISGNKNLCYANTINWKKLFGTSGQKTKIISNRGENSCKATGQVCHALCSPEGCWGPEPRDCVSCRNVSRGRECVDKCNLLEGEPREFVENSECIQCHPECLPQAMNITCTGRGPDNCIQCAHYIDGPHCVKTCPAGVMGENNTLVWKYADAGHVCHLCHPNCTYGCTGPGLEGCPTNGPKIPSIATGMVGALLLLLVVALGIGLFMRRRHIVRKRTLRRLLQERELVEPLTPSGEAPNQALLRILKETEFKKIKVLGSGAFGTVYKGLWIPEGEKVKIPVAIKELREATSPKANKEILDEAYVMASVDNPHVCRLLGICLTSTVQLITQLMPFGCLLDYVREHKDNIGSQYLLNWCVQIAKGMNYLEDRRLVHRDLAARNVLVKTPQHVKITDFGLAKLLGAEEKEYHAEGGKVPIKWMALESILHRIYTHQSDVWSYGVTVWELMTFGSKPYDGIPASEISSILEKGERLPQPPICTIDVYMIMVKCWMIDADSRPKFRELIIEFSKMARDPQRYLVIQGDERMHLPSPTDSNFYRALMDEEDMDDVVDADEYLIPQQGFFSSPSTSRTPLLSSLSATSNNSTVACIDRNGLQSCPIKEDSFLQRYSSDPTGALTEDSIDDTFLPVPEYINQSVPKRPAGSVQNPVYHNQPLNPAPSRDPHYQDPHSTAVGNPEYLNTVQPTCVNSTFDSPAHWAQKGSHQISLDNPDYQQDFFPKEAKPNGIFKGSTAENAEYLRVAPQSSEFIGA

CC[N+]1=C(/C=C/C=C/C=C/C=C2/N(CCCCCC(=O)N[C@@H](CCCCNC(=O)C3CCC(CN4C(=O)CC(SCCCC(=N)NC)C4=O)CC3)C(=O)Nc3ccc(C[C@H](CN(CC(=O)O)[C@H]4CCCC[C@@H]4N(CC(=O)O)CC(=O)O)N(CC(=O)O)CC(=O)O)cc3)c3ccc(S(=O)(=O)O)cc3C2(C)C)C(C)(C)c2cc(S(=O)(=O)[O-])ccc21 (stereo partly shown) [imaging agent 11]
binding / fluorescent labeling: specifically labels

From patent US8535639B2, “Trifunctional imaging agent for monoclonal antibody tumor-targeted imaging” (The United States of America, as represented by the …, priority 2007, dated 2013)
